Key:
NEP [1] = details: infusion into hippocampus or cortical ventricle, young rats, 4 weeks, local Aβ accumulation; cited from earlier work
Text: The underlying mechanisms leading to better learning and improved LTP are still speculative. However, this improved learning seems more likely to be an Aβ-independent effect in our mouse model.

NEP [2] = details: rats and mice after treatment with thiorphan; cited from earlier work
Text: Consistent with previous studies showing a broad spectrum of peptidases inhibited by that peptidase inhibitor [18], we hypothesized that there were other factors inhibited by thiorphan as a requisite for murine Aβ accumulation.

[3] = format: in vitro ADME, mice
Protocol: Figure 5 NEP-dependent neuropeptide degradation. […] The reactions were stopped by adding 0.35 M perchloric acid. In parallel assays, heat-inactivated probes (5 min at 90°C) were used as a control. After centrifugation of sedimented proteins, HPLC analyses were performed by isocratic elution as described by Siems et al.. […] The reactions were stopped by addition of 0.35 M perchloric acid. In parallel assays, heat-inactivated NEP (5 min at 90°C) was used as a control. HPLC analysis was performed by isocratic elution as described. The significance of differences was calculated by two-sided t test; n≥4; **P<0.01. (c) For galanin and GLP-1 immunohistochemistry, slices were incubated with the specific antibodies, followed by incubation with biotinylated anti-rabbit IgG. Immunoreactive products were visualized by the nickel ammonium sulfate-intensified diaminobenzidine reaction. Unequivocally stained regions in the murine cortex were localized and defined as ROIs (regions of interest), and luminometrically compared with adjacent regions without detectable staining (reference ROIs) (for both regions n = 40). The calculated differences were shown as mean±s.e.m.). Significant differences were calculated by Student's t test, indicated by **P<0.01, ***P<0.001.
The production of brain membranes and the HPLC-monitored peptide degradation procedures were performed as described in detail by Siems et al.. […]

[4] = tested on: associative and spatial learning; details: injected intracerebroventricularly; cited from earlier work
Text: It has been shown that NEP targets a variety of peptides involved in learning and memory such as oxytocin [36], NPY [37] or CCK [38]. Thus, marked improvement in learning and memory in very old NEP-deficient mice if compared with their aged-matched controls appears to be explained best by these NEP-degradable neuropeptides. Nevertheless, the known catalytic properties of NEP - it preferentially hydrolyses oligopeptides by cleaving on the N-terminal side of hydrophobic amino acid residues - and the knowledge of further potential learning-associated peptides [39]–[42] motivated us to t ...

recombinant (rc) NEP = biological target: T1, recombinant (rc) NEP (Homo sapiens, UniProt P08473); assay: HPLC-monitored peptide degradation by recombinant NEP; format: in vitro ADME; details: peptide 5 µM, rcNEP 20 ng (R&D Systems), over 120 min, stopped with 0.35 M perchloric acid, heat-inactivated control, HPLC isocratic elution, n≥3; values only in Figure 5a
T1 construct: purchased R&D Systems GmbH (Wiesbaden, Germany)
T1 sequence (P08473 whole entry): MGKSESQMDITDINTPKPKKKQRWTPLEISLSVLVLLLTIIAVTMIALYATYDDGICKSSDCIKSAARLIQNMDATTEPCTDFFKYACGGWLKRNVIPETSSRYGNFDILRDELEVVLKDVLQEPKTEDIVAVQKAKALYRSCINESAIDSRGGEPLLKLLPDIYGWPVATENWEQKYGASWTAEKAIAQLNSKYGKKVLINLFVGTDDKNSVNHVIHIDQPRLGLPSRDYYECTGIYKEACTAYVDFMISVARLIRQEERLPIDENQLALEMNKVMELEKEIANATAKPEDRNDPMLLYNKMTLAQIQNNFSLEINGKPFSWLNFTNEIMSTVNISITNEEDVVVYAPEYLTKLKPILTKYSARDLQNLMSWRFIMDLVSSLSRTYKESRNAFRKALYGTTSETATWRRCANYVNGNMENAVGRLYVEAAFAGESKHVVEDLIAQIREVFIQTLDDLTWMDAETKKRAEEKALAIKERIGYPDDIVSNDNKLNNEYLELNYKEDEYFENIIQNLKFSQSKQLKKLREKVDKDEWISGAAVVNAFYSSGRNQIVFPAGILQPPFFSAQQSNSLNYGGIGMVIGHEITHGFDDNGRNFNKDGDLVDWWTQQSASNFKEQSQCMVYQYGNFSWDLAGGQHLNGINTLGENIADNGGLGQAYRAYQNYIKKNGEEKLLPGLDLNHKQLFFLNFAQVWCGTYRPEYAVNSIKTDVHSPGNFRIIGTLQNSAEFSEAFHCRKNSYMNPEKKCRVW
Protocol: The reactions were stopped by adding 0.35 M perchloric acid. In parallel assays, heat-inactivated probes (5 min at 90°C) were used as a control. After centrifugation of sedimented proteins, HPLC analyses were performed by isocratic elution as described by Siems et al. [45]. […] The reactions were stopped by addition of 0.35 M perchloric acid. In parallel assays, heat-inactivated NEP (5 min at 90°C) was used as a control. HPLC analysis was performed by isocratic elution as described [45].
The production of brain membranes and the HPLC-monitored peptide degradation procedures were performed as described in detail by Siems et al. [45]. […] The recombinant NEP was obtained from R&D Systems GmbH (Wiesbaden, Germany).

Row | Compound | effect on learning and memory (NEP [1]) | deposition of endogenous Aβ (NEP [2]) | peptide degradation in brain membranes of wild-type (+/+) and knockout mice (−/−) [3] | effect on associative and spatial learning [4] | degradation by rcNEP (recovery in %) (recombinant (rc) NEP)
1 | O=C(O)CNC(=O)C(CS)Cc1ccccc1 (stereo not drawn) [thiorphan] | impaired learning and memory | plaque formation and fibrillization |  |  | 
2 | glucagon-like peptide 1 [GLP-1] |  |  | reduced rate of GLP-1 degradation in brains lacking NEP | improve associative and spatial learning | 
3 | galanin |  |  | identified galanin as a NEP substrate |  | identified galanin as a NEP substrate
